{"source": "patent US4546107A", "about": "“1,4-Methano-2-benzazepine derivatives useful as cerebal dysfunction-improving drugs, anti-convulsant, anti-epileptic or anti-anxiety drugs” (priority 1982, dated 1985)", "key": {"picrotoxin": {"tested_on": "picrotoxin", "experiment": "Anti-picrotoxin action (picrotoxin-induced lethality in mice)", "type": "in vivo, male dd mice", "conditions": "for ED50: Mus musculus, po, 0.5 h, read-out: Anti-picrotoxin-lethal action, ED50", "description": "1. Anti-picrotoxin Action\nGroups each of 7-14 male dd mice were used. A test compound was orally administered and 60 minutes thereafter, picrotoxin (5 mg/kg) was administered subcutaneously. The 50% anti-lethal dose (ED50) was calculated from the servival rate within 30 minutes."}, "bicuculline": {"tested_on": "bicuculline", "experiment": "Anti-bicuculline action (bicuculline-induced tonic-extensile convulsions in mice)", "type": "in vivo, male dd mice", "conditions": "for ED50: Mus musculus, po, 5 min, read-out: Anti-bicuculline-convulsive action, ED50", "description": "2. Anti-bicuculline Action\nGroups each of 4-14 male dd mice were used. Each test compound was administered orally and 60 minutes thereafter, bicuculline (0.6 mg/kg) was administered intravenously. The dose (ED50) required for 50% suppression of the occurrence of tonic-extensile convulsions within 5 minutes against the control group was determined."}}, "data": [{"smiles": "O=C1NC2CC1Cc1ccc(Cl)cc12", "note": "(stereo not drawn) [A, 8-chloro-1,4-methano-2,3,4,5-tetrahydro-1H-2-benzazepin-3-one]", "values": [{"measurement": "ED50", "setting": "picrotoxin", "value": 62, "unit": "mg/kg"}, {"measurement": "ED50", "setting": "bicuculline", "value": 95, "unit": "mg/kg"}]}, {"smiles": "CN1C(=O)C2Cc3ccc(Cl)cc3C1C2", "note": "(stereo not drawn) [B, 8-chloro-2-methyl-1,4-methano-2,3,4,5-tetrahydro-1H-2-benzazepin-3-one]", "values": [{"measurement": "ED50", "setting": "picrotoxin", "value": 66, "unit": "mg/kg"}, {"measurement": "ED50", "setting": "bicuculline", "value": 45, "unit": "mg/kg"}]}, {"smiles": "O=C1NC2CC1Cc1c(Cl)cc(Cl)cc12", "note": "(stereo not drawn) [C, 6,8-dichloro-1,4-methano-2,3,4,5-tetrahydro-1H-2-benzazepin-3-one]", "values": [{"measurement": "ED50", "setting": "picrotoxin", "value": 50, "unit": "mg/kg"}, {"measurement": "ED50", "setting": "bicuculline", "value": 73, "unit": "mg/kg"}]}, {"smiles": "O=C1NC2CC1Cc1ccccc12", "note": "(stereo not drawn) [D, 1,4Methano-2,3,4,5-tetrahydro-1H--2benzazepin-3-one]", "values": [{"measurement": "ED50", "setting": "picrotoxin", "value": 1100, "unit": "mg/kg"}, {"measurement": "ED50", "setting": "bicuculline", "value": "> 1000", "unit": "mg/kg"}]}, {"smiles": "COc1ccc2c(c1)C1CC(C2)C(=O)N1C", "note": "(stereo not drawn) [E, 8Methoxy-2-methyl-1,4-methano-2,3,4,5-tetrahydro-1H--2-benzazepin3-one]", "values": [{"measurement": "ED50", "setting": "picrotoxin", "value": "> 100", "unit": "mg/kg"}, {"measurement": "Anti-picrotoxin-lethal action, percent in parentheses", "setting": "picrotoxin; printed beside ED50 >100 mg/kg, p.o., mice, picrotoxin 5 mg/kg s.c.", "value": 0, "unit": "%"}, {"measurement": "ED50", "setting": "bicuculline", "value": "> 100", "unit": "mg/kg"}, {"measurement": "Anti-bicuculline-convulsive action, percent in parentheses", "setting": "bicuculline; printed beside ED50 >100 mg/kg, p.o., mice, bicuculline 0.6 mg/kg i.v.", "value": 0, "unit": "%"}]}]}
